Laboratory results: patent US8440813B2, “Antiviral nucleoside analogs” (BioCryst Pharmaceuticals, Inc., priority 2007, dated 2013)

| melting point | SMILES |
| --- | --- |
| 181 °C | CN(C)c1ncnn2c([C@@H]3O[C@H](CO)[C@@H](O)[C@@]3(C)O)ccc12 [Example 2, (2S,3R,4R,5R)-2-(4-(Dimethylamino)pyrrolo[1,2-f][1,2,4]triazin-7-yl)-5-(hydroxymethyl)-3-methyltetrahydrofuran-3,4-diol] |
| 128 to 131 °C | C=Cc1cc([C@@H]2O[C@H](CO)[C@@H](O)[C@@]2(C)O)n2ncnc(N)c12 [Example 4, (2S,3R,4R,5R)-2-(4-Amino-5-vinylpyrrolo[1,2-f][1,2,4]triazin-7-yl)-5-(hydroxymethyl)-3-methyltetrahydrofuran-3,4-diol] |
